{"source": "ChEMBL document CHEMBL1126410", "about": "“Synthesis and activity in cognition-related tests of novel 2-benzoylamino-4-oxoquinazolines” (1992)", "key": {"Mus musculus [1]": {"test_system": "Mus musculus", "test": "The compound was evaluated for hypoxic survival activity in mice after intraperitoneal administration at 10 mg/kg dose; 50-75", "type": "functional", "details": "ip"}, "Mus musculus [2]": {"test_system": "Mus musculus", "test": "The compound was evaluated for hypoxic survival activity in mice after intraperitoneal administration at 10 mg/kg dose; 30-80", "type": "functional", "details": "ip"}, "Mus musculus [3]": {"test_system": "Mus musculus", "test": "The compound was evaluated for hypoxic survival activity in mice after intraperitoneal administration at 100 mg/kg dose; 80-85", "type": "functional", "details": "ip"}, "Mus musculus [4]": {"test_system": "Mus musculus", "test": "The compound was evaluated for hypoxic survival activity in mice after intraperitoneal administration at 100 mg/kg dose", "type": "functional", "details": "ip"}, "Mus musculus [5]": {"test_system": "Mus musculus", "test": "The compound was evaluated for hypoxic survival activity in mice after intraperitoneal administration at 10-100 mg/kg dose; Inactive", "type": "functional, organism-based"}, "Mus musculus [6]": {"test_system": "Mus musculus", "test": "The compound was evaluated for hypoxic survival activity in mice after intraperitoneal administration at 100 mg/kg dose; 65-80", "type": "functional", "details": "ip"}, "Mus musculus [7]": {"test_system": "Mus musculus", "test": "Evaluated for improvement of anoxic amnesia in mice after ip administration of 50 mg/kg dose", "type": "functional", "details": "route intraperitoneal"}, "Mus musculus [8]": {"test_system": "Mus musculus", "test": "Evaluated for improvement of anoxic amnesia in mice after ip administration of 25 mg/kg dose(341 delay seconds); 79-131", "type": "functional", "details": "route intraperitoneal"}, "Mus musculus [9]": {"test_system": "Mus musculus", "test": "Evaluated for improvement of anoxic amnesia in mice after ip administration of 100 mg/kg dose", "type": "functional", "details": "route intraperitoneal"}, "Mus musculus [10]": {"test_system": "Mus musculus", "test": "Evaluated for improvement of anoxic amnesia in mice after ip administration of 10 mg/kg dose(218 delay seconds); -19-248", "type": "functional", "details": "route intraperitoneal"}, "Rattus norvegicus [11]": {"test_system": "Rattus norvegicus", "test": "Evaluated for improvement of anoxic amnesia in aged rat after ip administration of 10 mg/kg dose(529 delay seconds)", "type": "functional", "details": "route intraperitoneal"}, "Mus musculus [12]": {"test_system": "Mus musculus", "test": "The compound was evaluated for hypoxic survival activity in mice after intraperitoneal administration at 100 mg/kg dose; 75-80", "type": "functional", "details": "ip"}, "Rattus norvegicus [13]": {"test_system": "Rattus norvegicus", "test": "Evaluated for improvement of anoxic amnesia in aged rat after ip administration of 25 mg/kg (300 delay seconds)", "type": "functional", "details": "route intraperitoneal"}, "Mus musculus [14]": {"test_system": "Mus musculus", "test": "The compound was evaluated for hypoxic survival activity in mice after intraperitoneal administration at 0.125 mg/kg dose; 60-80", "type": "functional", "details": "ip"}, "Mus musculus [15]": {"test_system": "Mus musculus", "test": "The compound was evaluated for hypoxic survival activity in mice after intraperitoneal administration at 100 mg/kg dose; 50-95", "type": "functional", "details": "ip"}, "Mus musculus [16]": {"test_system": "Mus musculus", "test": "The compound was evaluated for hypoxic survival activity in mice after intraperitoneal administration at 100 mg/kg dose; 45-65", "type": "functional", "details": "ip"}, "Mus musculus [17]": {"test_system": "Mus musculus", "test": "The compound was evaluated for hypoxic survival activity in mice after intraperitoneal administration at 100 mg/kg dose; 55-55", "type": "functional", "details": "ip"}, "Mus musculus [18]": {"test_system": "Mus musculus", "test": "The compound was evaluated for hypoxic survival activity in mice after intraperitoneal administration at 50 mg/kg dose; 80-90", "type": "functional", "details": "ip"}, "Mus musculus [19]": {"test_system": "Mus musculus", "test": "The compound was evaluated for hypoxic survival activity in mice after intraperitoneal administration at 100 mg/kg dose; 50-90", "type": "functional", "details": "ip"}}, "note": "The source made the active and inactive calls. No cut-off for these calls is given here."}
{"smiles": "COc1ccc(C(=O)Nc2nc(O)c3ccccc3n2)cc1", "values": [{"measurement": "survival at 10 mg/kg", "setting": "Mus musculus [1]", "value": 63, "unit": "%"}]}
{"smiles": "Cc1ccc(C(=O)Nc2nc(O)c3ccccc3n2)cc1", "values": [{"measurement": "survival at 10 mg/kg", "setting": "Mus musculus [1]", "value": 63, "unit": "%"}]}
{"smiles": "O=C(Nc1nc(O)c2ccccc2n1)c1ccc(Cl)cc1", "values": [{"measurement": "survival at 10 mg/kg", "setting": "Mus musculus [2]", "value": 55, "unit": "%"}]}
{"smiles": "Cc1cccc(C(=O)Nc2nc(O)c3ccccc3n2)c1", "values": [{"measurement": "survival at 100 mg/kg", "setting": "Mus musculus [3]", "value": 83, "unit": "%"}]}
{"smiles": "CC(C)n1c(NC(=O)c2ccccc2)nc2ccccc2c1=O", "values": [{"measurement": "survival at 100 mg/kg", "setting": "Mus musculus [4]", "value": 55, "unit": "%"}]}
{"smiles": "Cc1cccc(C(=O)Nc2nc(=O)c3ccccc3n2C)c1", "values": [{"measurement": "Survival", "setting": "Mus musculus [5]", "value": "inactive"}]}
{"smiles": "O=C(Nc1nc(O)c2ccccc2n1)c1ccccc1", "values": [{"measurement": "survival at 100 mg/kg", "setting": "Mus musculus [6]", "value": 73, "unit": "%"}, {"measurement": "Improvement", "setting": "Mus musculus [7]", "value": 130, "unit": "%"}]}
{"smiles": "Cn1c(NC(=O)c2ccccc2)nc2ccccc2c1=O", "values": [{"measurement": "Improvement", "setting": "Mus musculus [8]", "value": 105, "unit": "%"}, {"measurement": "Improvement", "setting": "Mus musculus [9]", "value": 78, "unit": "%"}, {"measurement": "Improvement", "setting": "Mus musculus [10]", "value": 94, "unit": "%"}, {"measurement": "Improvement", "setting": "Rattus norvegicus [11]", "value": 1369, "unit": "%"}, {"measurement": "survival at 100 mg/kg", "setting": "Mus musculus [12]", "value": 78, "unit": "%"}, {"measurement": "Improvement", "setting": "Rattus norvegicus [13]", "value": 733, "unit": "%"}]}
{"smiles": "CNC(=O)Oc1ccc2c(c1)[C@]1(C)CCN(C)[C@@H]1N2C", "note": "[PHYSOSTIGMINE]", "values": [{"measurement": "survival at 0.125 mg/kg", "setting": "Mus musculus [14]", "value": 60, "unit": "%"}]}
{"smiles": "Cn1c(NC(=O)c2ccccc2)nc(=O)c2ccccc21", "values": [{"measurement": "survival at 100 mg/kg", "setting": "Mus musculus [15]", "value": 70, "unit": "%"}]}
{"smiles": "Cc1ccc(C(=O)Nc2nc(=O)c3ccccc3n2C)cc1", "values": [{"measurement": "survival at 100 mg/kg", "setting": "Mus musculus [16]", "value": 55, "unit": "%"}, {"measurement": "Improvement", "setting": "Mus musculus [7]", "value": 224, "unit": "%"}]}
{"smiles": "Cc1ccc2nc(NC(=O)c3ccccc3)nc(O)c2c1", "values": [{"measurement": "survival at 100 mg/kg", "setting": "Mus musculus [17]", "value": 55, "unit": "%"}]}
{"smiles": "Cc1ccc(C(=O)Nc2nc3ccccc3c(=O)n2C)cc1", "values": [{"measurement": "survival at 50 mg/kg", "setting": "Mus musculus [18]", "value": 85, "unit": "%"}, {"measurement": "Improvement", "setting": "Mus musculus [7]", "value": 116, "unit": "%"}]}
{"smiles": "COc1cc2nc(NC(=O)c3ccccc3)nc(O)c2cc1OC", "values": [{"measurement": "survival at 100 mg/kg", "setting": "Mus musculus [19]", "value": 70, "unit": "%"}]}
